Experimental data as given in patent US20230277427A1, “COOLING SENSATION COMPOSITIONS” (GIVAUDAN SA, priority 2020, published 2023).

How the values were obtained:
[1] = Stability of the solutions over time at different temperature (Example B); type: physicochemical
Protocol: The compound of Formula 1 was 2-methyl-1-(2-(5-(p-tolyl)-1H-imidazol-2-yl)piperidin-1-yl)butan-1-one (hereinafter “the compound”). The testing procedure with a number of different solvents was as follows: • 1. To 0.4 g compound was added 1.6 g solvent. This corresponds to a 20% solution. • 2. This mixture was warmed to 50° C. and agitated for 1 hour. • 3. If the compound dissolved, the solution was allowed to cool to room temperature, and then if it remained clear, it was stored overnight at 4° C. • 4. If crystals had developed, a further 2 g solvent was added (this now corresponding to a 10% solution) and step 2 were performed. • 5. The observations and actions of step 3 were performed. • 6. If the 10% combination of step 4 was not a solution, a further 4 g solvent was added (this now corresponding to a 5% solution), and step 2 were performed. • 7. The observations and actions of step 3 were performed. If crystals had developed, any such solvent was considered unsuitable Any solvent in which the compound was not crystallising at a 20 weight % solution, the testing procedure was repeated with a higher concentration as follows: • 1. To 1 g compound was added 1 g solvent. This corresponds to a 50% solution. • 2. This mixture was warmed to 50° C. and agitated for 1 hour. • 3. If the compound dissolved, the solution was allowed to cool to room temperature, and then if it remained clear, it was stored overnight at 4° C. • 4. If crystals had developed, a further 0.5 g solvent was added (this now corresponding to a 40% solution) and step 2 were performed. • 5. The observations and actions of step 3 were performed. • 6. If the 40% combination of step 4 was not a solution, a further 0.83 g solvent was added (this now corresponding to a 30% solution), and step 2 were performed. • 7. The observations and actions of step 3 were performed.

[2] = Solubility of compounds of formula (I) in different solvents (Example A); type: physicochemical; conditions: for in the fridge (precipitation): about 4° C. over night; for solubility @ RT: weight % of compound
Protocol: Into a 20 ml vial 0.4 g of 2-methyl-1-(2-(5-(p-tolyl)-1H-imidazol-2-yl)piperidin-1-yl)butan-1-one (white solid) have been added followed by the addition of 1.6 g of the respective solvent as indicated in Table 1 below. The vial was warmed to about 50° C. with gentle agitation for 1 hour. If 2-methyl-1-(2-(5-(p-tolyl)-1H-imidazol-2-yl)piperidin-1-yl)butan-1-one hasn't dissolved, 2 g of the respective solvent was added (resulting in a composition comprising 10 weight % of a compound of formula (I)), and again gentle agitated for an additional hour at about 50° C. If 2-methyl-1-(2-(5-(p-tolyl)-1H-imidazol-2-yl)piperidin-1-yl)butan-1-one still hasn't dissolved, 4 g of the respective solvent was added (resulting in a composition comprising 5 weight % of a compound of formula (I)), and again gentle agitated for an additional hour at about 50° C.
If 2-methyl-1-(2-(5-(p-tolyl)-1H-imidazol-2-yl)piperidin-1-yl)butan-1-one has dissolved, the vial was removed from the heat and was allowed to cool to room temperature. If no precipitation was observed the vials haven been placed in the fridge (about 4° C.) over night.
If 2-methyl-1-(2-(5-(p-tolyl)-1H-imidazol-2-yl)piperidin-1-yl)butan-1-one still has not dissolved, the procedure above has been repeated, starting with 0.05 g of 2-methyl-1-(2-(5-(p-tolyl)-1H-imidazol-2-yl)piperidin-1-yl)butan-1-one and 0.95 g of the respective solvent as indicated in Table 1 below. If still not dissolved, 1 g of the respective solvent was added (resulting in a composition comprising 2.5 weight % of a compound of formula (I))). If still not dissolved further solvent was added.

CCC(C)C(=O)N1CCCCC1c1ncc(-c2ccc(C)cc2)[nH]1 (stereo not shown) [2-methyl-1-(2-(5-(p-tolyl)-1H-imidazol-2-yl)piperidin-1-yl)butan-1-one]
stability of a solution, weight % of compound, @ 4° C. Overnight ([1]; solvent Butyl lactate): 20% weight %
stability of a solution, weight % of compound, @ 4° C. Overnight ([1]; solvent Ethanol abs.): 30% weight %
stability of a solution, weight % of compound, @ 4° C. Overnight ([1]; solvent Ethyl lactate): 10% weight %
stability of a solution, weight % of compound, @ 4° C. Overnight ([1]; solvent Isopropyl alcohol): 10% weight %
stability of a solution, weight % of compound, @ 4° C. Overnight ([1]; solvent Isopropylidene glycerol): 10% weight %
stability of a solution, weight % of compound, @ 4° C. Overnight ([1]; solvent L-Lactic acid, purity 86.7 weight %): 50% weight %
stability of a solution, weight % of compound, @ 4° C. Overnight ([1]; solvent dl-Lactic acid, purity 88 weight %): 50% weight %
in the fridge (precipitation) ([2]; solvent Butyl lactate, 10% solution): no crystals observed
solubility @ RT ([2]; solvent Butyl lactate, dissolved at about 50° C., cooled to room temperature): 10%
in the fridge (precipitation) ([2]; solvent Ethanol abs., 20% solution): no crystals observed
solubility @ RT ([2]; solvent Ethanol abs., dissolved at about 50° C., cooled to room temperature): 20%
in the fridge (precipitation) ([2]; solvent Ethyl lactate, 10% solution): no crystals observed
solubility @ RT ([2]; solvent Ethyl lactate, dissolved at about 50° C., cooled to room temperature): 10%
in the fridge (precipitation) ([2]; solvent Isopropyl alcohol, 10% solution): no crystals observed
solubility @ RT ([2]; solvent Isopropyl alcohol, dissolved at about 50° C., cooled to room temperature): 10%
in the fridge (precipitation) ([2]; solvent Isopropylidene glycerol, 10% solution): no crystals observed
solubility @ RT ([2]; solvent Isopropylidene glycerol, dissolved at about 50° C., cooled to room temperature): 10%
in the fridge (precipitation) ([2]; solvent L-Lactic acid, purity 86.7 weight %, 20% solution): no crystals observed
solubility @ RT ([2]; solvent L-Lactic acid, purity 86.7 weight %, dissolved at about 50° C., cooled to room temperature): 20%
in the fridge (precipitation) ([2]; solvent Propylene glycol, 2.5% solution): no crystals observed
solubility @ RT ([2]; solvent Propylene glycol, dissolved at about 50° C., cooled to room temperature): 2.5%
in the fridge (precipitation) ([2]; solvent Triacetin, 1% solution): no crystals observed
solubility @ RT ([2]; solvent Triacetin, dissolved at about 50° C., cooled to room temperature): 1%
in the fridge (precipitation) ([2]; solvent Triethyl citrate, 2.5% solution): no crystals observed
solubility @ RT ([2]; solvent Triethyl citrate, dissolved at about 50° C., cooled to room temperature): 2.5%
solubility @ RT ([2]; solvent Water dest.): <1% (not soluble)
in the fridge (precipitation) ([2]; solvent dl-Lactic acid, purity 88 weight %, 20% solution): no crystals observed
solubility @ RT ([2]; solvent dl-Lactic acid, purity 88 weight %, dissolved at about 50° C., cooled to room temperature): 20%
